Target: Isocitrate dehydrogenase [NADP] cytoplasmic (Homo sapiens, UniProt O75874, R132H)
Assay: Inhibition of IDH1 R132H mutant (unknown origin) using a-ketoglutarate as substrate by fluorescence biochemical assay

Chain of Isocitrate dehydrogenase [NADP] cytoplasmic (O75874 2-414 R132H limits assumed): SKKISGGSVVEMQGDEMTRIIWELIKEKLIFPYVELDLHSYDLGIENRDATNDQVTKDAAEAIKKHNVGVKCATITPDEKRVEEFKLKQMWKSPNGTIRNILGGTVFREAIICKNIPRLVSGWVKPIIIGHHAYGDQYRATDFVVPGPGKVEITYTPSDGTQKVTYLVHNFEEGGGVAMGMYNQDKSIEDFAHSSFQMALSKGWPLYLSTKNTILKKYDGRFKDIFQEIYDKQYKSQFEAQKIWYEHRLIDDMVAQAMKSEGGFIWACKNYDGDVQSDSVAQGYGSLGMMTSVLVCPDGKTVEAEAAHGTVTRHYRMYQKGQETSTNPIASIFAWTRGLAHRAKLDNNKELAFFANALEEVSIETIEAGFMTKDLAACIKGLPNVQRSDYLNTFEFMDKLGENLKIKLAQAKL

Row | IC50 [nM] | Structure (SMILES)
1 | < 15.9 | C[C@H](Nc1nccc(N2C(=O)OC[C@]2(C)C2CC2)n1)c1ccc(CN2CCC(O)(C(F)(F)F)CC2)cc1F
2 | 194 | C[C@H](Nc1nccc(N2C(=O)OC[C@]2(C)C2CC2)n1)c1ccc(CN2CCC(N)CC2)c(F)c1
